Experimental data: the METLIN SMRT retention time set (Domingo-Almenara et al. 2019)

test: gradient 5% acetonitrile 3 min, to 50% in 2 min, to 85% in 15 min, held 3 min, 100 µL/min; settings: column: Zorbax Extend-C18 2.1 x 50 mm; eluents: water / acetonitrile, 0.1% formic acid
Method in brief: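 The system's dead and dwell volumes were 40 μL and 900 μL, with a Zorbax Extend-C18 column (2.1 × 50 mm, 1.8 μm) run at 100 μL/min in water and acetonitrile containing 0.1% formic acid each. Pure standards were analyzed in mixtures of ~100 molecules by HPLC–quadrupole time-of-flight mass spectrometry in positive and negative ionization mode. Retention time was assigned from computationally picked, manually inspected adduct peaks.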

RP-LC retention time [s] | SMILES
1220 | CCOc1ccc(NS(=O)(=O)c2c(C)sc(C)c2-c2cc(C(F)(F)F)on2)cc1
914 | COc1ccccc1Oc1ccc(S(=O)(=O)N2CCCC2)cc1
921 | Cc1cccc(N2CCN(S(=O)(=O)c3cc4n(c3)CCCN(C(C)C)C4=O)CC2)c1
652 | O=C1COc2ccc(NC(=O)c3cc(C4CC4)n(C4CCS(=O)(=O)C4)n3)cc2N1 (stereo not drawn)
790 | Cc1cccc(NC(=O)C2CCN(S(=O)(=O)c3cc(C(=O)N(C)C)cs3)CC2)c1C
710 | Cc1ccc(NC(=O)N2CC(c3nc(C(C)C)nn3C)C2)cc1C
886 | COc1cc(NS(=O)(=O)c2ccc(-c3nnc(C4CCC4)o3)o2)cc(OC)c1
916 | COc1cc(OC)cc(C(=O)Nc2ccc3c(c2)Sc2ncccc2C(=O)N3C(C)C)c1
1010 | Cc1ccccc1-c1nnc(COc2ccc(NC(=O)c3sccc3C)cc2)o1
851 | COc1ccc(CC(=O)N2CCN(c3ccc(-c4nc(C)cs4)cn3)CC2)cc1
859 | CCc1ccc(NS(=O)(=O)c2cc3c(s2)CCN(C(=O)C2CCC2)C3)cc1
717 | COc1ccc(C)cc1NC(=O)N1C[C@@H]2C[C@H](NS(C)(=O)=O)[C@H]1C2
818 | COc1ccc(OC)c(NC(=O)c2c(C)oc3nc(C)nc(N4CCOCC4)c23)c1
710 | CCC(C)NC(=O)C1c2cc(OC)c(OC)cc2C(=O)N(C)C1c1ccc(OC)c(OC)c1 (stereo not drawn)
958 | COc1ccc(CNC(=O)c2sc(-c3cn(C)c4ncccc34)nc2C)cc1
712 | O=C(NC1CCCN(c2ccc(=O)[nH]n2)C1)C1(S(=O)(=O)c2ccc(Cl)cc2)CC1 (stereo not drawn)
1180 | COc1cccc(CNC(=O)Nc2ccc(-c3nc(-c4cc(C)ccc4C)co3)cc2)c1
998 | Cc1cc2c(cc(C(=O)N3CCC(C(=O)NC4CCCC4)CC3)n2Cc2c(F)cccc2Cl)o1
997 | CCOc1ccc(C(=O)n2nc(C)c(S(=O)(=O)N3CCCCC3)c2C)cc1

RP-LC retention time [s] | SMILES
1060 | Cc1ccc(C(=O)NCC2CCCN(S(=O)(=O)c3c(C)cc(C)cc3C)C2)cc1 (stereo not drawn)
744 | COc1ccc(NC(=O)C2c3cc(OC)c(OC)cc3C(=O)N(C)C2c2cccs2)cc1OC (stereo not drawn)
598 | CN(C)c1ccc(CNC(=O)C2CCN(S(=O)(=O)c3ccc4c(c3)NC(=O)CO4)CC2)cc1
790 | CCOc1ccccc1C(=O)Nc1cccn2c(C)nnc12
712 | Cc1cnc(-c2ccccc2)n1C1CCCN(S(=O)(=O)c2ccc3c(c2)OCCO3)C1 (stereo not drawn)
666 | COc1ccc(NC(=O)C2CCCN(c3nnc4ccc(Cl)cn34)C2)cc1 (stereo not drawn)
611 | c1ccc(-c2nc(C3CC3)no2)c(OC2CN(Cc3ccncc3)C2)c1
1110 | COc1ccc(NC(=O)Cc2c(C)nn(-c3nc(-c4ccccc4)cs3)c2C)cc1
800 | CCOC(=O)c1[nH]c(C)c(CCC(=O)N2CCC(C(=O)NCc3ccccc3OC)CC2)c1C
892 | CSc1ccc(-c2nc3cnccn3c2Nc2cccc(C(=O)NC3CCCCC3)c2)cc1
843 | O=C(COc1ccccc1)N1CCC(CNS(=O)(=O)c2ccc(Cl)s2)CC1
724 | COc1ccc(OC)c(NC(=O)Cn2ncc3c(c2=O)N(C2CC2)C(=O)CS3)c1
598 | Cc1cccc(NC(=O)N2CCCC2c2nc(-c3cccc(C)c3)no2)c1 (stereo not drawn)
1100 | CCc1nc(-c2csc(S(=O)(=O)N3CCCC(C(=O)Nc4ccc(Cl)cc4)C3)c2)no1 (stereo not drawn)
894 | Cn1nc(-c2nnc(-c3ccc(F)cc3)o2)c2c1CCN(S(=O)(=O)c1ccc(C#N)cc1)C2
605 | COc1ncccc1C(=O)N1CCC(C(=O)Nc2nccs2)CC1
900 | COc1ccc(N2CCN(c3cc(SCC(=O)Nc4ccc5c(c4)OCO5)ncn3)CC2)cc1
1240 | Cc1ccc(-c2nnc(Cc3nc(-c4ccc(OC(C)C)cc4)no3)o2)cc1C

The next lines start with the compound.

SMILES | RP-LC retention time [s]
O=C1COc2c(CCNCCN(C(=O)CCNCCc3ccc(Cl)c(Cl)c3)C3CCCCC3)ccc(O)c2N1 | 691
CC(=O)N1CCc2ccccc2C1C(=O)NCc1cc(F)ccc1F (stereo not drawn) | 648
COc1ccc(-c2nc3ccc(Br)cn3c2Nc2ccccc2C)cc1 | 830
O=C(NCC1CN(c2ccc3c(c2)OCO3)C(=O)O1)c1ccccc1C(F)(F)F (stereo not drawn) | 880
O=C(Nc1ccc(NC(=O)c2ccncc2)cc1)c1ccncc1 | 610
CC(=O)Nc1ccc(C2(C(=O)NCc3ccco3)CCC2)cc1 | 691
CCN(CC)S(=O)(=O)c1cc(-c2nc(C(C)C)cs2)sc1C | 1270
COCCNC(=O)c1c2c(cn(-c3ccc(Cl)cc3)c1=O)C(=O)CC(C)(C)C2 | 856
CCC(C)NC(=O)c1ccn[nH]1 (stereo not drawn) | 593
CCOC(=O)c1nc(N(CC)c2ccccc2)c2ccccc2n1 | 769
CCn1ncc2ccc(C(=O)NC(C)C)cc21 | 702
CC1=NN(CCC#N)C(=O)/C1=C\c1ccc(N(C)C)cc1 | 691
O=C(NCCc1ccccc1)N1CCCn2nc(-c3cccs3)cc2C1 | 805
Cc1ccc(-c2nnc(-c3nc(NCCc4cccs4)c4ccccc4n3)o2)cc1 | 1120
Cc1ccc(Cl)cc1NC(=O)CN1CCN(Cc2ccc(F)cc2)C(=O)C1=O | 804
CC(C)NC(=O)Cn1nc2c3cc(-c4ccc(F)cc4)nn3ccn2c1=O | 785
Cc1cccc(CN2CCn3c(nnc3[C@@H]3C[C@@H](O)CN3C)C2)c1 | 590
CCc1nnc([C@@H]2CC(F)(F)CN2C(=O)c2ocnc2C)o1 | 644
CCOC(=O)c1c(C)[nH]c(CCC(=O)NCc2ccc3c(c2)OCO3)c1C | 738
CC(=O)O[C@H]1C[C@@H]2OC3C=C(C)CCC3(C)[C@@]1(C)[C@@]21CO1 (stereo partly drawn) | 833
CC(C)c1ccc(NC(=O)CC2=C3CCCCC3N(C(C)C)C2=O)cc1 (stereo not drawn) | 1070
Cc1nn(-c2ccccc2)c2nc(N3CCCC(C(=O)Nc4cccc(Br)c4)C3)sc12 (stereo not drawn) | 1300
Cc1c(NC(=O)OC[C@@H]2COCCN2)cn2ncnc(Nc3ccc4c(cnn4Cc4cccc(F)c4)c3)c12 | 674
CCOC(=O)c1nc(Nc2ccccc2Cl)c2ccccc2n1 | 913
O=C(Nc1c(-c2ccc(F)cc2)nc2ccccn12)c1cccc([N+](=O)[O-])c1 | 684
CC1CCN(C(=O)C2CCN(c3cncnc3N(C)C)CC2)CC1 | 624

SMILES | RP-LC retention time [s]
FC1(F)CN[C@H](c2nc(-c3ccncc3)no2)C1 | 614
O=C(CC1CCN(C(=O)c2ccc3oc(-c4ccccc4)nc3c2)CC1)N1CCOCC1 | 682
O=C(NC1CC1)C1(CCO)CCN(Cc2ccccc2)C1 (stereo not drawn) | 564
COc1ccc(CN2CCc3nc(N4CCN(c5ccccc5F)CC4)ncc3C2)cc1 | 773
CC(C)n1cnc2cc(CNC(=O)c3c(F)cccc3Cl)ccc21 | 617
c1ccc(N2CCN(c3nnc(-n4cccc4CN4CCN(c5ccccn5)CC4)s3)CC2)cc1 | 675
CCc1ccc(CNC(=O)C2CCN(C(=O)c3ncn4c3COC(c3ccccc3)C4)CC2)cc1 (stereo not drawn) | 756
Cc1cccc(Sc2nccnc2SCC(=O)N2CCN(c3ccccn3)CC2)c1 | 721
c1csc(CN2CCC(Oc3ccccc3-c3nc(-c4cnccn4)no3)C2)c1 (stereo not drawn) | 662
O=C(NCC1CCCO1)c1coc(NC(=O)C2CC2)n1 (stereo not drawn) | 571
O=C1NC2(CCN(C(=O)Nc3ccc4c(c3)OCCO4)CC2)Oc2ccccc21 | 736
CCCC(NC(=O)c1ccc(C(F)(F)F)cc1)C(=O)Nc1nc2ccccc2[nH]1 (stereo not drawn) | 802
CCc1ccc(NC(=O)c2sc(-c3cccn3CC)nc2C)cc1 | 1260
CC1CCCC(NC(=O)C2CCCN(C(=O)c3cc4sccc4n3C)C2)C1C (stereo not drawn) | 991
Cc1nccn1-c1cc(N2CCCCC2)nc2ccnn12 | 594
O=C(NCC1CC1)C1(CCO)CCN(Cc2ccccc2)C1 (stereo not drawn) | 581
CN(C)S(=O)(=O)N(CC(=O)Nc1cc(C(F)(F)F)ccc1Cl)c1ccccc1 | 1090
CN(CCCNC(=O)Cn1c(=O)c2cccn2c2ccc(F)cc21)C1CCCCC1 | 635
O=C(NCc1cccc(Cl)c1)c1c(O)c2cccnc2[nH]c1=O | 954
Cc1nnc(N2CCCC(C(=O)NCCc3ccccc3)C2)c2nn(-c3ccccc3)c(C)c12 (stereo not drawn) | 726
Cc1nc(C)c(C(=O)N2CCC(Oc3nc4c(C)ccc(C)c4s3)CC2)s1 | 1090
O=C(c1ccoc1)N1CCN(C(=O)c2nnn3c2COC(c2ccc(Cl)cc2)C3)CC1 (stereo not drawn) | 838
C=Cc1ccc(Cn2cc(S(=O)(=O)N3CCCC3)ccc2=O)cc1 | 886
O=c1ccn(-c2ccc(Cl)cc2)nc1-c1nc(-c2ccc(Br)cc2)no1 | 1080
Cc1cc(C(=O)NC(C)C2CC3CCC2C3)c2c(C)noc2n1 (stereo not drawn) | 939
